From patent US7906520B2, “Methods for treating pain” (The General Hospital Corporation, priority 2003, dated 2011)

Legend:
[1] = test system: BH4 biosynthesis; assay: Tissue biopterin and neopterin levels after SNI (LC-MS/MS); format: in vivo; details: with DAHP administration
Description: FIG. 30 is a series of bar graphs quantifying the levels of the BH4 metabolites biopterin and neopterin in the DH, DRG, and ScN following SNI surgery with and without DAHP treatment, compared to control.
Using the preferred method, tissue neopterin and biopterin levels were determined with a liquid chromatography tandem mass spectrometry method. After acidic pH oxidation with iodine according to Fukushima and Nixon (Methods Enzymol. 66: 429-436, 1980) tissues were extracted by solid phase extraction employing Oasis MCX extraction cartridges and concentrations of total biopterin, neopterin and the internal standard rhamnopterin were determined by liquid chromatography coupled to tandem mass spectrometry. HPLC analysis was done under gradient conditions using a Nucleosil C8 column. MS/MS analyses were performed on an API 4000 Q TRAP triple quadrupole mass spectrometer with a Turbo Ion Spray source. Precursor-to-product ion transitions of m/z 236 192 for biopterin, m/z 252 192 for neopterin, m/z 265 192 for rhamnopterin were used for the MRM. Concentrations of the calibration standards, quality controls and samples were evaluated by Analyst software 1.4 (Applied Biosystems). Linearity of the calibration curve was proven from 0.1-50 ng/ml. The coefficient of correlation for all measured sequences was at least 0.99. The intra-day and inter-day variability was <10%.

[2] = test system: SNI model of neuropathic pain; assay: Spared nerve injury (SNI) model of neuropathic pain, von Frey and acetone tests; format: in vivo
Description: FIGS. 8A-8D represent a series of graphs showing the effect of DAHP on nociceptive behavior in the SNI model of neuropathic pain. Figures on the left show the threshold to mechanical stimuli applied with von Frey hairs (von Frey threshold). Figures on the right show the duration of paw licking, shaking and lifting following acetone application to the paw as a measure for cold allodynia. In FIG. 8A, rats were treated with DAHP (180 mg/kg/d i.p.) for three days starting three days after surgery (early treatment). Nociceptive behavior was assessed daily before and after drug injection. In FIG. 8B, the treatment period was extended to five days (180 mg/kg/d i.p.) starting three days after surgery and pain behavior was assessed daily before and after drug injection and once every second day for an additional week after stopping the daily drug injections. In FIG. 8C, treatment with DAHP (180 mg/kg/d i.p. for 5 days) was started 17 days after surgery i.e. in the chronic phase without any treatment in the early phase. Nociceptive behavior was assessed once daily 3 h after drug injection. In FIG. 8D, animals received a continuous spinal infusion of DAHP (6 mg/kg/d) for 14 days. The infusion was started directly after surgery. Nociceptive behavior was assessed once daily.
FIGS. 16A-16D show the effects of systemic (16A) and intrathecal (16B) treatment with methotrexate (MTX) on the nociceptive behavior in the SNI model of neuropathic pain. […] In FIG. 16A MTX (0.2 mg/kg/d) was injected i.p. once daily starting 5 days after SNI surgery. Nociceptive behavior was assessed once daily three hours after drug injection. In FIG. 16B, MTX was administered as continuous intrathecal infusion (0.1 mg/kg/d for 14 days) starting right after SNI surgery. Nociceptive behavior was assessed once daily. FIGS. 16C and 16D show the body weight gain of animals during systemic (16C) and intrathecal (16D) MTX treatment. Determination of the weight gain was used to assess general well-being and potential toxic effects of MTX.
In this graph, closed triangles represent vehicle, i.p.; open triangles represent DAHP at 90 mg/kg/day, i.p.; open squares represent DAHP at 180 mg/kg/day, i.p.; and open circles represent DAHP at 270 mg/kg/day, i.p.
All procedures were performed in accordance with Massachusetts General Hospital animal care regulations. Adult male Sprague Dawley rats (200-300 g) were anesthetized with halothane. For the sciatic nerve transection (axotomy), the left sciatic nerve was exposed at the mid thigh level, ligated with 3/0 silk, and sectioned distally. The wound was sutured in two layers, and the animals were allowed to recover. For SNI the tibial and peroneal branch of the sciatic nerve were ligated and transected whereas the sural nerve was spared. For CCI, the sciatic nerve was loosely ligated with dexon 4/0 (three ligatures) and for the spinal ligation model the L5 spinal segmental nerve was ligated.

[3] = test system: formalin injection into the hindpaw; assay: Formalin test: flinching behavior and cFos immunoreactivity in dorsal horn; format: in vivo, rat
Description: DAHP (180 mg/kg) was injected i.p. one hour before injection of formalin into the hindpaw. Flinches were counted for one hour starting right after formalin injection. FIG. 24A is a series of photo micrographs showing cFos immunoreactivity in ipsilateral dorsal horn neurons two hours after formalin injection in DAHP and vehicle-treated rats. FIG. 24B is a bar graph quantifying the number of cFos immunoreactive cell bodies observed under each condition.

[4] = test system: GTPCH-1 expression; assay: GTPCH-I in situ hybridization in DRG after SNI; format: in vivo; details: 14 days after SNI surgery, DAHP vs vehicle
Source text: FIG. 27A is a series of photomicrographs of in situ hybridization of GTPCH-I in the ipsilateral (lesioned) and contralateral (control) dorsal root ganglia 3 days (top panel) and 14 days (bottom panel) after SNI surgery. FIG. 27B is a series of photomicrographs of GTPCH-I in situ hybridization 14 days after SNI surgery and treatment with either DAHP or vehicle control.

[5] = DAHP pharmacokinetics in plasma and CSF; format: in vivo, rat; details: single dose 180 mg/kg i.p.
Description: FIGS. 14A-14C represent a series of graphs showing pharmacokinetic features of DAHP and the pharmacokinetic-pharmacodynamic relationship. […] In addition, concentrations of DAHP in cerebrospinal fluid (CSF) were determined at an early and late time point. In FIG. 14B, plasma concentrations were fitted according to a one-compartment PK model with first order input and first order elimination. PK parameters are presented where Cmax is the maximum concentration, tmax the time of the maximum concentration, k01 is the absorption rate constant, t1/2abs. represents the absorption half-life, k10 is the elimination rate constant, t1/2 el is the elimination half-life, and Cl is the clearance. In FIG. 14C, pooled plasma concentration and effect data of the CFA model were used to assess the PK/PD relationship employing a standard sigmoidal Emax model.

[6] = test system: SNI model; assay: SNI model, L-NAME versus DAHP; format: in vivo; details: DAHP 120 mg/kg i.p. single dose vs L-NAME 25 mg/kg i.p.
Description: In this figure, closed circles represent nNOS knockout mice with DAHP; open circles, nNOS knock out mice with vehicle; closed triangles, wild type mice with DAHP; and open triangles, wild type mice with vehicle. […] In this figure, closed triangles represent L-NAME administration; open circles, L-NAME+DAHP administration; closed circles, DAHP administration; and open triangles, vehicle administration. L-NAME was administered at 25 mg/kg, i.p., single dose, and DAHP was administered at 120 mg/kg, i.p., single dose. The antinociceptive efficacy of this high L-NAME dose is weaker (about 50%) than that of a moderate dose of DAHP.

[7] = DAHP 6 mg/kg/day continuous intrathecal infusion
[8] = DAHP 180 mg/kg/day i.p., started 3 or 17 days post-surgery, vs vehicle

For Nc1cc(O)nc(N)n1 [DAHP, 2,4-Diamino-6-hydroxypyrimidine], the “biopterin increases after SNI” value ([1]; DH, DRG, ScN) was “reversed in the DH and the ScN, but not the DRG”, the “neopterin increases after SNI” value ([1]; DRG and ScN) was “reversed” and the cold allodynia [2, 7] was “reduced”. For the same compound, the mechanical allodynia [2, 7] was “reduced”, the “cold pain (cold allodynia, acetone)” value [2, 8] was “reduction” and the “mechanical sensitivity (von Frey threshold)” value [2, 8] was “reduction in mechanical sensitivity”. For the same compound, the “dose-effect relationship, nociceptive response to mechanical or cold stimuli” value ([2]; DAHP 90, 180, 270 mg/kg/day i.p.) was “dose-dependent relationship”, the “flinching behavior in the formalin assay” value ([3]; single i.p. dose of 180 mg/kg) was “reduced the flinching behavior” and the “c-FOS immunoreactivity in ipsilateral dorsal horn neurons” value ([3]; two hours after formalin, intraperitoneal DAHP, p<0.05) was “significantly reduced elevation”. For the same compound, the “GTPCH-1 expression in DRG” value [4] was “does not affect GTPCH-1 expression”, the “distribution in cerebrospinal fluid” value [5] was “rapid distribution in the cerebrospinal fluid” and the “plasma concentration after i.p. injection” value [5] was “rapidly increased”. The “antinociceptive effect compared with L-NAME” value [6] was “stronger antinociceptive effect”.
